Earlier results on three molecules are cited in US20060052382A1, “3-Amino-4-phenylbutanoic acid derivatives as dipeptidyl peptidase inhibitors for the treatment or prevention of diabetes” (priority 2002, published 2006).

The test system of data set [1] is hematopoiesis. The conditions noted are these: mouse, cyclophosphamide-induced neutropenia; WO 99/56753.
In data set [2] the target is T1, DP-IV (Homo sapiens, UniProt P27487).
T1 construct: GRF is rapidly degraded in plasma to GRF[3-44]
The conditions noted are these: plasma.

The test system of data set [3] is cardiac allograft. The conditions noted are these: rats; Transplantation, 63: 1495-1500 (1997).

T1 sequence (P27487 39-766 limits assumed): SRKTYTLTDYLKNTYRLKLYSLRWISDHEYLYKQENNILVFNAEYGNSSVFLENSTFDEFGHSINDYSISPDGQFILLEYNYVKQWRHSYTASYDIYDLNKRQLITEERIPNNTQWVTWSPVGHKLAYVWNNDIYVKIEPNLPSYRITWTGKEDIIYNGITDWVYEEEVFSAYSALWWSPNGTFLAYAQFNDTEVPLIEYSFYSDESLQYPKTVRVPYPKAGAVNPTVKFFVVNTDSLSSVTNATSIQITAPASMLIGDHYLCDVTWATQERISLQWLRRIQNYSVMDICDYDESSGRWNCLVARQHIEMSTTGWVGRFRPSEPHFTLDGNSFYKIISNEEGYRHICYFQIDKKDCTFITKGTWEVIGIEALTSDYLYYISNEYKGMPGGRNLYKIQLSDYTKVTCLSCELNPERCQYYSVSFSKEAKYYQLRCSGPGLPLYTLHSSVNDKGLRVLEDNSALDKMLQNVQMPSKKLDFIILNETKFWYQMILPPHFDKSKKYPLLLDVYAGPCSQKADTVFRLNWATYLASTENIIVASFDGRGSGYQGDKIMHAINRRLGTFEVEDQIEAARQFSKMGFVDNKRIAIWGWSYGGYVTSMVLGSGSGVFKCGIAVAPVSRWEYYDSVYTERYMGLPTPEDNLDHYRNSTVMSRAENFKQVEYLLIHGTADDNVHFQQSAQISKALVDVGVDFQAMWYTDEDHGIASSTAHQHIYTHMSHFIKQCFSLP

As for `CC(C)[C@H](N)C(=O)N1CCC[C@H]1B(O)O` [Val-Boro-Pro], in data set [1], the stimulation of hematopoiesis entry was “stimulated hematopoiesis”.
For the molecule diprotin A, the “prevention of GRF degradation to GRF[3-44]” value in data set [2] is recorded as “prevented”.
As for `CC(C)N1CCC(c2ccccc2)(c2ccccc2)CC1` [Prodipine, Pro-Pro-diphenyl-phosphonate], the cardiac allograft survival result in data set [3] is on record as “double cardiac allograft survival in rats from day 7 to day 14”.
